Laboratory results taken from US20190185479A1, “BICYCLIC NITROGENATED HETEROCYCLIC COMPOUND” (MITSUBISHI TANABE PHARMA CORPORATION, priority 2016, published 2019).

Key:
Type in all cases: biochemical
[1] = biological target: T1, Human PDE7B (hPDE7B) (Homo sapiens, UniProt Q9NP56); experiment: Measurement of PDE7 inhibitory activity (Experimental Example 1; residual cAMP, LANCE Ultra cAMP TR-FRET); conditions: cAMP 3 nmol/L, room temperature 60 minutes
T1 construct: made in house; host or cells: COS-7 cells
Procedure, shortened: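 hPDE7B from transfected COS-7 cells reacted with 3 nmol/L cAMP (final) and compound (2% DMSO) in 50 mmol/L Tris-HCl pH 7.5, 1 mmol/L MgCl2, 0.1% BSA, 0.5 mmol/L DTT, 60 min at room temperature. Reaction stopped with IBMX; residual cAMP measured by TR-FRET. Inhibition scaled between no-compound and no-enzyme controls.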

[2] = biological target: T2, hPDE1A (Homo sapiens, UniProt P54750); experiment: PDE7 selectivity test (Ki value), Experimental Example 2: hPDE1A; conditions: Ki from IC50 by Cheng-Prusoff, read-out: PDE inhibition constant Ki, PDE1
T2 construct: purchased SB Drug Discovery
Protocol: (§1) hPDE1A, hPDE2A, hPDE3A, hPDE4D, hPDE5A, and hPDE8B were purchased from SB Drug Discovery. hPDE7B was isolated by the same method as [Method for preparing samples 1], and hPDE9A, hPDE10A, and hPDE11A were isolated by the same method as hPDE7B, i.e., isolated from COS-7 cells transfected with plasmids encoding each PDE. PDE6 was purified and isolated from bovine retina (bovine PDE6).
(§2) Prior to the calculation of Ki value, Km value of each PDE against cAMP or cGMP was calculated. Each PDE diluted with an assay buffer so that it would have an appropriate enzyme activity, and six or more concentrations of cAMP or cGMP were reacted at room temperature for 60 minutes. Regarding PDE using cAMP as a substrate, PDELight (trademark) HTS cAMP phosphodiesterase Kit (Lonza) was used to measure a degradation product, 5′-AMP. Also, regarding PDE using cGMP as a substrate, […] of perchloric acid was added to the mixture to stop the reaction, and the resulting mixture was subjected to LC-MS/MS to measure the residual cGMP concentration. The amount of degraded substrate in each substrate concentration was calculated, the concentration of the added substrate was plotted on the horizontal axis, the amount of degraded substrate was plotted on the vertical axis, and Km value was calculated by non-linear regression on the basis of Michaelis-Menten equation. Km value (substrate) of each PDE was hPDE1A: 4.3 (cGMP), hPDE2A: 36 (cAMP), hPDE3A: 0.11 (cAMP), hPDE4D: 0.90 (cAMP), hPDE5A: 3.9 (cGMP), bovine PDE6:9.8 (cGMP), hPDE7B: 0.015 (cAMP), hPDE8B: 0.63 (cAMP), hPDE9A: 0.0037 (cGMP), hPDE10A: 0.051 (cAMP), and hPDE11A: 1.4 (cAMP) μmol/L, respectively.
(§3) Next, PDE inhibition assay of a compound was carried out using each PDE. The PDE inhibition assay was basically carried out by the same enzyme reaction method as [Assay procedure 1], and the degraded amount of cAMP or cGMP was measured by the same method as [Assay procedure 2]. In the assay, a concentration approximated to Km value of each PDE against cAMP or cGMP was used as a substrate concentration. Meanwhile, regarding hPDE5A, hPDE8B, and hPDE9A, IMAP (trademark) FP Phosphodiesterase Evaluation Assay Kit (Molecular Devices) was used to measure the degradation of FAM-cAMP or FAM-cGMP by fluorescence depolarization technique.
(§4) Each compound was evaluated at six or more concentrations with common ratio 10. Each inhibition rate was calculated according to <Method for data calculation 1>, and then each IC50 value was calculated by sigmoid regression. The resulting IC50 value was used in the following Cheng-Prusoff equation to calculate each Ki value. Ki=IC50/(1+[S]/Km), wherein [S] represents a substrate concentration used

[3] = biological target: T3, hPDE2A (Homo sapiens, UniProt O00408); experiment: PDE7 selectivity test (Ki value), Experimental Example 2: hPDE2A; conditions: Ki from IC50 by Cheng-Prusoff, read-out: PDE inhibition constant Ki, PDE2
T3 construct: purchased SB Drug Discovery
Protocol: as §1, §2, §3, §4

[4] = biological target: T4, hPDE3A (Homo sapiens, UniProt Q14432); experiment: PDE7 selectivity test (Ki value), Experimental Example 2: hPDE3A; conditions: Ki from IC50 by Cheng-Prusoff, read-out: PDE inhibition constant Ki, PDE3
T4 construct: purchased SB Drug Discovery
Protocol: as §1, §2, §3, §4

[5] = biological target: T5, hPDE7B (Homo sapiens, UniProt Q9NP56); experiment: PDE7 selectivity test (Ki value), Experimental Example 2: hPDE7B; conditions: Ki from IC50 by Cheng-Prusoff, read-out: PDE inhibition constant Ki, PDE7
T5 construct: made in house; host or cells: COS-7 cells
Protocol: as §1, §2, §3, §4

[6] = biological target: T6, hPDE4D (Homo sapiens, UniProt Q08499); experiment: PDE4 inhibition assay (IC50), Experimental Example 3; conditions: hPDE4D; read-out: PDE inhibition assay IC50, PDE4
T6 construct: purchased SB Drug Discovery
Procedure, shortened: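 Recombinant human enzymes incubated with compound and 3 nmol/L cAMP (final) in Tris-HCl pH 7.5 buffer with MgCl2, BSA, DTT, 2% DMSO final, 60 min at room temperature. Residual cAMP measured by TR-FRET (LANCE Ultra), reaction stopped with 0.5 mmol/L IBMX. IC50 from inhibition relative to no-compound (0%) and no-enzyme (100%) controls.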

[7] = biological target: T7, hPDE11A (Homo sapiens, UniProt Q9HCR9); experiment: PDE7 selectivity test (Ki value), Experimental Example 2: hPDE11A; conditions: Ki from IC50 by Cheng-Prusoff, read-out: PDE inhibition constant Ki, PDE11
T7 construct: made in house; host or cells: COS-7 cells
Protocol: as §1, §2, §3, §4

T4 sequence (Q14432 whole entry): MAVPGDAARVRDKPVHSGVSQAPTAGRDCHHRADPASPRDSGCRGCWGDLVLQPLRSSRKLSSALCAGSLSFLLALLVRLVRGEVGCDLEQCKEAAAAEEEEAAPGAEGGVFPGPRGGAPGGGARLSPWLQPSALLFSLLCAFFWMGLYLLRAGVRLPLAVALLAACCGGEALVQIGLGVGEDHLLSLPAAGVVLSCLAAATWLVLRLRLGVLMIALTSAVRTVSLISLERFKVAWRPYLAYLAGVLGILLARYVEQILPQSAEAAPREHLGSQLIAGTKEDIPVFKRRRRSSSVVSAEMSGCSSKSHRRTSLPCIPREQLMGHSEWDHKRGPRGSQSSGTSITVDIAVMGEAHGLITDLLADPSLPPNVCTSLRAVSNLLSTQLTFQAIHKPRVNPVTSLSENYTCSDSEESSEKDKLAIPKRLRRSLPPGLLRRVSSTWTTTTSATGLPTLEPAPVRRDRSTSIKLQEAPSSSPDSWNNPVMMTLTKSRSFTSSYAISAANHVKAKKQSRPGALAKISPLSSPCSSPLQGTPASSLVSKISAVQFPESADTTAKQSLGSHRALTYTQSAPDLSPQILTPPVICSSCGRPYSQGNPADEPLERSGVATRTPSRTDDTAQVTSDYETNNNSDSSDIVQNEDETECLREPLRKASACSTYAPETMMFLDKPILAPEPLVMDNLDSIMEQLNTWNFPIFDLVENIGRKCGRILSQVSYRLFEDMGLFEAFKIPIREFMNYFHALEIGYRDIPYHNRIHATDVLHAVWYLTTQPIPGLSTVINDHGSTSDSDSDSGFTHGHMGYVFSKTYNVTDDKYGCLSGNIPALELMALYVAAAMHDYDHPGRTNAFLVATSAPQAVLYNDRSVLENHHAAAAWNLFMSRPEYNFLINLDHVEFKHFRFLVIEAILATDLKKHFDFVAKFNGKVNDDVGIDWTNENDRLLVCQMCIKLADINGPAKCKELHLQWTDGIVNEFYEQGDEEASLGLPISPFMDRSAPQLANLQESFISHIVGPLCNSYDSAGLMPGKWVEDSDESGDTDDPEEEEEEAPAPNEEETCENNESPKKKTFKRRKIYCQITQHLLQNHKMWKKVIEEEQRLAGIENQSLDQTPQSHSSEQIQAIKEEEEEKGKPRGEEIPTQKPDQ
T2 sequence (P54750 whole entry): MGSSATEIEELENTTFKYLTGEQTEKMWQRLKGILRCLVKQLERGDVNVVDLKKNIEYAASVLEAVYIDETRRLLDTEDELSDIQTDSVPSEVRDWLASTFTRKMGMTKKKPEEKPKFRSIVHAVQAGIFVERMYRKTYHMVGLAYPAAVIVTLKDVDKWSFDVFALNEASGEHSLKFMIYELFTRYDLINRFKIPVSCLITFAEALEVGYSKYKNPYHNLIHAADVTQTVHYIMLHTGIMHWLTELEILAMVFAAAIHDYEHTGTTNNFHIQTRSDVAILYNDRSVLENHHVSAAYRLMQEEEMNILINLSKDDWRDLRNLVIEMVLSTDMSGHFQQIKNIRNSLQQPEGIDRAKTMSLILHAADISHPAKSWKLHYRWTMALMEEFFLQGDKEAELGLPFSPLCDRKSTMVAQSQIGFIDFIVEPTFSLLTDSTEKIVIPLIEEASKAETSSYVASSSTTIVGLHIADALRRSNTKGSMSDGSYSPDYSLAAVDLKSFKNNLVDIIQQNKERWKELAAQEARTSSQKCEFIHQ
T3 sequence (O00408 whole entry): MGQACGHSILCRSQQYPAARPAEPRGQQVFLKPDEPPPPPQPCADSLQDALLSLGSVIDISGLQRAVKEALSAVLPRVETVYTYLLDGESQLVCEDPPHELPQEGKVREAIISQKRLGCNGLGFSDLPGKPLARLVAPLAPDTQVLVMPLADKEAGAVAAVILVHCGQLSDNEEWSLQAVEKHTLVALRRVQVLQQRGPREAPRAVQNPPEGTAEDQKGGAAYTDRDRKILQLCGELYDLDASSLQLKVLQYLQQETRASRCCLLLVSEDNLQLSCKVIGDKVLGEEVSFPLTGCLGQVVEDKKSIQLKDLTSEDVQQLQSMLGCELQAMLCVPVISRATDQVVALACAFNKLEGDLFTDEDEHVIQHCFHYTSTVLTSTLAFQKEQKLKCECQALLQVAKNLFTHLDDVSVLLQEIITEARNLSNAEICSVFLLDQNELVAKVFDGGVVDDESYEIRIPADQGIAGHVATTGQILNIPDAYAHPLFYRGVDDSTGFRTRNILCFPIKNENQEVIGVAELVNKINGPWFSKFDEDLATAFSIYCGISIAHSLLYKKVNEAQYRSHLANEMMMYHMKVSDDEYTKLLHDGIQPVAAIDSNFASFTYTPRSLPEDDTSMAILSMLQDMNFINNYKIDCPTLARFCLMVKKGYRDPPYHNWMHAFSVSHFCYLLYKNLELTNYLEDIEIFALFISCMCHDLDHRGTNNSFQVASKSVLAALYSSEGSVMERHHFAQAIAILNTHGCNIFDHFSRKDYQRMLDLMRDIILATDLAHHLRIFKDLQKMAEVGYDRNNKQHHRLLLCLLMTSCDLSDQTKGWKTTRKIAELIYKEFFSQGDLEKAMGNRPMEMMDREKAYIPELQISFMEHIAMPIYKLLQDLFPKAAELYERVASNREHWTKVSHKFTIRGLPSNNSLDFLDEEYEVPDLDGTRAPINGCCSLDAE
T6 sequence (Q08499 whole entry): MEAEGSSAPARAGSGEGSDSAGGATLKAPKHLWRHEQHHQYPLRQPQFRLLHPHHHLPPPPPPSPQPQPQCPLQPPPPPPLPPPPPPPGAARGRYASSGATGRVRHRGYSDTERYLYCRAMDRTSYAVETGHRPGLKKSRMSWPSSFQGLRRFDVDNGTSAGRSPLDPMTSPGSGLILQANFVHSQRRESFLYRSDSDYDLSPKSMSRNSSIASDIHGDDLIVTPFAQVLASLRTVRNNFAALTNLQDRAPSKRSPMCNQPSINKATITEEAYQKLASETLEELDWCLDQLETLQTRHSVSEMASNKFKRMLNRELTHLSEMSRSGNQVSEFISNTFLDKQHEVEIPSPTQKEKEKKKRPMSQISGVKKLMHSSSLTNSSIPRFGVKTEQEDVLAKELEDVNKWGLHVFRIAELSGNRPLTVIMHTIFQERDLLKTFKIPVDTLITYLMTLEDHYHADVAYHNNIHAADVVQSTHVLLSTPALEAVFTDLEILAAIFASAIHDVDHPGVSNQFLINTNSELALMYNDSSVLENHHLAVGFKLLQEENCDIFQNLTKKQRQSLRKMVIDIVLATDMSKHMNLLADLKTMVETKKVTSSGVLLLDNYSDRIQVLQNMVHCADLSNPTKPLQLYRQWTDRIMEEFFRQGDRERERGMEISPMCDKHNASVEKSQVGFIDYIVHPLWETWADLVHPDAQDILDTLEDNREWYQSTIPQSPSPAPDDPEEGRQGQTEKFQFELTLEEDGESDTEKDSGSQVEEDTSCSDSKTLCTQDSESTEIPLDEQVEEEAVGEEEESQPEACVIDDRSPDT
T5 sequence (Q9NP56 whole entry): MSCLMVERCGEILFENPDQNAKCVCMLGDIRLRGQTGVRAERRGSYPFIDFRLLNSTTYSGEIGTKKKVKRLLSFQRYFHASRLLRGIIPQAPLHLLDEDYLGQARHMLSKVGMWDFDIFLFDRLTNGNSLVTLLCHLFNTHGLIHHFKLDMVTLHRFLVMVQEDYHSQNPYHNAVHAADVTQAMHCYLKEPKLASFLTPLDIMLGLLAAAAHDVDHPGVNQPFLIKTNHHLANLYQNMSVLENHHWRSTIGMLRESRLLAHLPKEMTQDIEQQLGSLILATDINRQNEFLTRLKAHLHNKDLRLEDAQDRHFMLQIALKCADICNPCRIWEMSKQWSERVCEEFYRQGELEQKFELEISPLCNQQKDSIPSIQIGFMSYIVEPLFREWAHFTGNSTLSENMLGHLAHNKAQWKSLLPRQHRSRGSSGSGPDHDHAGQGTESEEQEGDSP
T1 sequence (Q9NP56 whole entry): as above
T7 sequence (Q9HCR9 whole entry): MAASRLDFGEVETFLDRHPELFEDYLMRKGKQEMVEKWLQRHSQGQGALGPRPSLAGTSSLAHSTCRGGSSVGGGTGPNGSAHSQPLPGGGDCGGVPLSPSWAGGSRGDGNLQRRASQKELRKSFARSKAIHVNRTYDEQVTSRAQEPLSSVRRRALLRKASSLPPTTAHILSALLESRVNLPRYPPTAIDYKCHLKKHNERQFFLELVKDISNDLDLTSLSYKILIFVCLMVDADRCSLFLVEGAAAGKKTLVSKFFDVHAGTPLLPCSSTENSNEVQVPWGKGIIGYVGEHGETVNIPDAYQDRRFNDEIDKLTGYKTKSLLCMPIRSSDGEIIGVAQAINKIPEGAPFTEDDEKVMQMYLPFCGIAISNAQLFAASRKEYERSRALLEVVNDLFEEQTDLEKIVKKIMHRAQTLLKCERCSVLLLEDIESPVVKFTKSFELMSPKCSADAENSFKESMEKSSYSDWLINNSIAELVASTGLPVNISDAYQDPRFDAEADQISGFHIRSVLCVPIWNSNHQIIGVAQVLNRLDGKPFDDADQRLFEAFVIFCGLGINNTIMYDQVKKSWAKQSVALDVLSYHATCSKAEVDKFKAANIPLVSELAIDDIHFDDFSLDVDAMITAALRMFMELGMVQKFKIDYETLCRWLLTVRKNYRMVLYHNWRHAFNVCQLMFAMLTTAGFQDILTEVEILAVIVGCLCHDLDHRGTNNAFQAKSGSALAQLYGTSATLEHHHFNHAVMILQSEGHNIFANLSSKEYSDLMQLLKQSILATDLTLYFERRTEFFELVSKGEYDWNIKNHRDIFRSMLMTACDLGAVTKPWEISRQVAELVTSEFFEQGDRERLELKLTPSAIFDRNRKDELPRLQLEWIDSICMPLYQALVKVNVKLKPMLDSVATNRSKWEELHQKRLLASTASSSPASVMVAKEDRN

SMILES | IC50 [1] [µM] | Ki [2] [µM] | Ki [3] [µM] | Ki [4] [µM] | Ki [5] [µM] | IC50 [6] [µM] | Ki [7] [µM]
C[C@@H]1CCC[C@H](c2nnc3c(N)nccn23)C1 [Example 204, 3-[(1S,3R)-3-methylcyclohexyl][1,2,4]triazolo[4,3-a]pyrazin-8-amine] | < 0.01 | 8.9 | 14 | 43 | 0.003 | 1.51 | 46
Nc1nccn2c(C3CCCCC3)nnc12 [Example 141, 3-cyclohexyl[1,2,4]triazolo[4,3-a]pyrazin-8-amine] | 0.01 | > 5.2 | > 5.1 | > 5.2 | 0.031 | 6.22 | > 5

The next lines start with the values.

IC50 [1] [µM] | Ki [2] [µM] | Ki [3] [µM] | Ki [4] [µM] | Ki [5] [µM] | IC50 [6] [µM] | Ki [7] [µM] | SMILES
< 0.01 | 39 | 10 | > 52 | 0.012 | 9.2 | – | CC1CCCCC1n1nnc2c(N)ncnc21 (single isomer, unassigned) [Example 191, 3-(cis-2-methylcyclohexyl)-3H-[1,2,3]triazolo[4,5-d]pyrimidin-7-amine]
0.05 | > 5.2 | 6.6 | > 5.2 | 0.027 | 0.54 | > 5 | Cc1nc(N)c2nnn(C3CCCCC3)c2n1 [Example 4]
0.05 | > 52 | 27 | > 52 | 0.031 | 7.82 | 29 | Nc1ncnc2c1nnn2C1CCCCC1 [Example 3, 3-cyclohexyl-3H-[1,2,3]triazolo[4,5-d]pyrimidin-7-amine]
